Test results from patent publication US20180028516A1, “METHODS AND DEVICES FOR THE TREATMENT OF OCULAR DISEASES IN HUMAN SUBJECTS” (CLEARSIDE BIOMEDICAL, INC., priority 2012, published 2018).
Entries after “also recorded” stand apart in the source; their conditions may differ.

How the values were obtained:
[1] = system: model of acute posterior uveitis; assay: Porcine model of acute posterior uveitis, Hackett/McDonald scoring (Example 12); type: in vivo, pigs
Protocol: In this study, the effects of microneedle injection of triamcinolone acetonide (TA) into the suprachoroidal space (SCS) were compared to the effects of intravitreal (IVT) TA injection in a model of acute posterior uveitis.
Ten weanling pigs had IVT injection with BSS or lipopolysaccharide (LPS) followed 24 hours later with an injection of 0.2 mg or 2.0 mg of TA into the SCS or by IVT. The SCS was accessed using hollow microneedles provided herein. A measurement of each eye under the Hackett/McDonald scoring system was performed on −1, 0, and 3 days after treatment. Pigs were then euthanized, aqueous and vitreous humor collected for cell counts and protein levels, and the eyes were processed for histopathology.

[2] = design: species or system New Zealand White rabbit; conditions: rabbit, in vivo
Protocol: In this study, the ocular tolerability and toxicokinetics of suprachoroidal administration of Ting triamcinolone acetonide (TA) using microneedle was determined, in the New Zealand White rabbit as an animal model.
On Day 0, New Zealand White (NZW) rabbits (4/sex/group/terminal time point, 48 total) were administered a single bilateral suprachoroidal injection of 100 μL of 4 ma TA (40 mg/mL) or vehicle, using a 33 g 750 μm microneedle. Clinical Observations, body weights, food consumption, slit lamp biomicroscopy with McDonald-Shadduck scoring, indirect ophthalmoscopy, intraocular pressure assessment (IOP), central corneal thickness (CCT), electroretinography (ERG), serum chemistry and hematology, and systemic exposure were assessed up to 13 weeks post-dose. Animals were sacrificed on Day 1 or Week 13 and were evaluated for macroscopic observations at necropsy and ocular histopathology. Four animals/sex were given an additional suprachoroidal administration on Day 90, and will be followed for an additional 13 weeks.

[3] = Electroretinography in porcine uveitis study (Example 13); type: in vivo, domestic weanling pigs; conditions: after SCS or IVT injections of 0.2 or 2.0 mg TA
Protocol: With the pigs anesthetized on Days −1, 0 and 3, and pupils dilated with 1% tropicamide HCl. and corneas anesthetized with 0.5% proparacaine HCl, whole field ERGs were recorded from the left eve prior to injections. All animals were dark adapted for 15 minutes prior to ERG. A monopolar contact lens electrode (ERG-jet, La Chaux des Fonds, Switzerland) was placed on the cornea to serve as an active electrode. A subdermal electrode at the lateral canthus served as the indifferent electrode. A Barraquer eyelid speculum was placed to maintain open eyelids and a subdermal needle electrode was inserted dorsally as the ground electrode. EKGs were elicited by brief flashes at 0.33 Hz delivered with a mini-ganzfehl photostimulator (Roland Instruments, Wiesbaden, Germany) at maximal intensity. Twenty responses were amplified, filtered, and averaged (Retiport Electrophysiologic Diagnostic Systems, Rolland Instruments, Wiesbaden, Germany). B wave amplitudes were recorded from each pig at the designated times.

[4] = Ocular and systemic pharmacokinetics of TA, SCS vs IVT (Example 10); type: in vivo, New Zealand White rabbit
Protocol: In this study, the ocular and systemic pharmacokinetics (PK) of triar cinolone acetonide (TA) in the New Zealand White rabbit following intravitreal […] injection or administration into the suprachoroidal space (SCS) using a hollow rnicroneedle were evaluated.
On Day 0, male rabbits (5 per group) received a single bilateral administration of 4 mg TA (100 μL Triesence triamcinolone formulationAlcon Labs) via SCS injection using a 33 g 750 μm microneedle or an IVT injection using a standard 30 g needle. The study design is shown below in Table 4.
Clinical observations, body weights, and intraocular pressure (IOP) were assessed up to 13 weeks post-dose. Plasma and ocular matrixes (aqueous humor (AH), lens, iris/ciliary body (ICB), vitreous humor (VH), sclera/choroid (SC), and retina) were sampled on Days 1, 14, 28, 56, and 91. Plasma (LLOQ 0.5 ng/mL) and ocular matrixes (LLOQ 2 -15 ng/mL) were analyzed using LC-MS/MS, and resulting data were assessed for noncompartmentat PK parameters.

CC1(C)O[C@@H]2C[C@H]3[C@@H]4CCC5=CC(=O)C=C[C@]5(C)[C@@]4(F)[C@@H](O)C[C@]3(C)[C@]2(C(=O)CO)O1 [TA, triamcinolone acetonide]
dose of TA administered to the SCS giving a reduction in inflammation within 3 days, as share of the dose required intravitreally ([1]; 0.2 mg SCS vs 2 mg IVT): 10% | inflammatory response (mean Hackett/McDonald ocular scores) ([1]; 2 mg TA SCS after LPS, vs vehicle): significant reduction; also recorded: significantly reduces | IOP change related to the injection procedure [2]: decrease | adverse effects related to the method of administration or 4 mg TA as assessed by histopathology [2]: no adverse effects | central corneal thickness (CCT) [2]: slight decrease | mean Cmax in plasma ([2]; 4 mg): 12 ng/mL | retinal dysfunction (decrease in b wave amplitude) [3]: no evidence of retinal dysfunction | increase of AUC in VH, IVT TA compared with SCS TA ([4]; 4 mg TA): 52 fold | increase of AUC in aqueous Humor, IVT TA compared with SCS TA ([4]; 4 mg TA): 63 fold | increase of AUC in iris/ciliary body, IVT TA compared with SCS TA ([4]; 4 mg TA): 44 fold | increase of AUC in lens, IVT TA compared with SCS TA ([4]; 4 mg TA): 690 fold | increase of AUC in the sclera/choroid, SCS TA compared with IVT TA ([4]; 4 mg TA): 11 fold | increase of Cmax in VH, IVT TA compared with SCS TA ([4]; 4 mg TA): 4 fold | increase of Cmax in aqueous Humor, IVT TA compared with SCS TA ([4]; 4 mg TA): 250 fold | increase of Cmax in iris/ciliary body, IVT TA compared with SCS TA ([4]; 4 mg TA): 24 fold | increase of Cmax in lens, IVT TA compared with SCS TA ([4]; 4 mg TA): 290 fold | increase of Cmax in the sclera/choroid, SCS TA compared with IVT TA ([4]; 4 mg TA): 10 fold | AUC0-t ([4]; Aqueous Humor, IVT 4 mg TA): 8,500 ng · day/mL | Clast ([4]; Aqueous Humor, IVT 4 mg TA): 42 ng/mL | Cmax ([4]; Aqueous Humor, IVT 4 mg TA): 269 ng/mL | Tlast ([4]; Aqueous Humor, IVT 4 mg TA): 91 days | Tmax ([4]; Aqueous Humor, IVT 4 mg TA): 336 h | Clast ([4]; Aqueous Humor, SCS 4 mg TA): 16 ng/mL | Cmax ([4]; Aqueous Humor, SCS 4 mg TA): 16 ng/mL | Tlast ([4]; Aqueous Humor, SCS 4 mg TA): 28 days | AUC0-t ([4]; Iris/Ciliary body, IVT 4 mg TA): 40,900,000 ng · day/mL | Clast ([4]; Iris/Ciliary body, IVT 4 mg TA): 463,000 ng/mL | Cmax ([4]; Iris/Ciliary body, IVT 4 mg TA): 1,260,000 ng/mL | Tlast ([4]; Iris/Ciliary body, IVT 4 mg TA): 91 days | Tmax ([4]; Iris/Ciliary body, IVT 4 mg TA): 24 h | AUC0-t ([4]; Iris/Ciliary body, SCS 4 mg TA): 1,190,000 ng · day/mL | AUC0-∞ ([4]; Iris/Ciliary body, SCS 4 mg TA): 1,190,000 ng · day/mL | Clast ([4]; Iris/Ciliary body, SCS 4 mg TA): 247 ng/mL | Cmax ([4]; Iris/Ciliary body, SCS 4 mg TA): 50,200 ng/mL | T1/2 ([4]; Iris/Ciliary body, SCS 4 mg TA): 220 h | Tlast ([4]; Iris/Ciliary body, SCS 4 mg TA): 91 days | Tmax ([4]; Iris/Ciliary body, SCS 4 mg TA): 24 h | AUC0-t ([4]; Lens, IVT 4 mg TA): 12,600,000 ng · day/mL | Clast ([4]; Lens, IVT 4 mg TA): 40,300 ng/mL | Cmax ([4]; Lens, IVT 4 mg TA): 540,000 ng/mL | Tlast ([4]; Lens, IVT 4 mg TA): 91 days | Tmax ([4]; Lens, IVT 4 mg TA): 336 h | AUC0-t ([4]; Lens, SCS 4 mg TA): 27,400 ng · day/mL | Clast ([4]; Lens, SCS 4 mg TA): 9 ng/mL | Cmax ([4]; Lens, SCS 4 mg TA): 1,870 ng/mL | Tlast ([4]; Lens, SCS 4 mg TA): 91 days | Tmax ([4]; Lens, SCS 4 mg TA): 24 h | AUC0-t ([4]; Retina, IVT 4 mg TA): 25,100,000 ng · day/mL | AUC0-∞ ([4]; Retina, IVT 4 mg TA): 26,300,000 ng · day/mL | Clast ([4]; Retina, IVT 4 mg TA): 41,500 ng/mL | Cmax ([4]; Retina, IVT 4 mg TA): 781,000 ng/mL | T1/2 ([4]; Retina, IVT 4 mg TA): 504 h | Tlast ([4]; Retina, IVT 4 mg TA): 91 days | Tmax ([4]; Retina, IVT 4 mg TA): 336 h | AUC0-t ([4]; Retina, SCS 4 mg TA): 24,600,000 ng · day/mL | Clast ([4]; Retina, SCS 4 mg TA): 2,600 ng/mL | Cmax ([4]; Retina, SCS 4 mg TA): 907,000 ng/mL | Tlast ([4]; Retina, SCS 4 mg TA): 91 days | Tmax ([4]; Retina, SCS 4 mg TA): 24 h | quantifiability of TA in ocular matrixes ([4]; SCS and IVT, 4 mg TA): quantifiable in all ocular matrixes through Day 91 | AUC0-t ([4]; Sclera/choroid, IVT 4 mg TA): 8,640,000 ng · day/mL | AUC0-∞ ([4]; Sclera/choroid, IVT 4 mg TA): 10,300,000 ng · day/mL | Clast ([4]; Sclera/choroid, IVT 4 mg TA): 27,100 ng/mL | Cmax ([4]; Sclera/choroid, IVT 4 mg TA): 235,000 ng/mL | T1/2 ([4]; Sclera/choroid, IVT 4 mg TA): 1030 h | Tlast ([4]; Sclera/choroid, IVT 4 mg TA): 91 days | Tmax ([4]; Sclera/choroid, IVT 4 mg TA): 336 h | AUC0-t ([4]; Sclera/choroid, SCS 4 mg TA): 101,000,000 ng · day/mL | AUC0-∞ ([4]; Sclera/choroid, SCS 4 mg TA): 101,000,000 ng · day/mL | Clast ([4]; Sclera/choroid, SCS 4 mg TA): 34,000 ng/mL | Cmax ([4]; Sclera/choroid, SCS 4 mg TA): 2,860,000 ng/mL | T1/2 ([4]; Sclera/choroid, SCS 4 mg TA): 264 h | Tlast ([4]; Sclera/choroid, SCS 4 mg TA): 91 days | Tmax ([4]; Sclera/choroid, SCS 4 mg TA): 24 h | AUC0-t ([4]; Vitreous Humor, IVT 4 mg TA): 77,600,000 ng · day/mL | AUC0-∞ ([4]; Vitreous Humor, IVT 4 mg TA): 85,500,000 ng · day/mL | Clast ([4]; Vitreous Humor, IVT 4 mg TA): 218,000 ng/mL | Cmax ([4]; Vitreous Humor, IVT 4 mg TA): 1,640,000 ng/mL | T1/2 ([4]; Vitreous Humor, IVT 4 mg TA): 600 h | Tlast ([4]; Vitreous Humor, IVT 4 mg TA): 91 days | Tmax ([4]; Vitreous Humor, IVT 4 mg TA): 24 h | AUC0-t ([4]; Vitreous Humor, SCS 4 mg TA): 3,460,000 ng · day/mL | Clast ([4]; Vitreous Humor, SCS 4 mg TA): 10 ng/mL | Cmax ([4]; Vitreous Humor, SCS 4 mg TA): 287,000 ng/mL | Tlast ([4]; Vitreous Humor, SCS 4 mg TA): 91 days | Tmax ([4]; Vitreous Humor, SCS 4 mg TA): 24 h | systemic exposure ([4]; either route (IVT or SCS), 4 mg TA): minimal | TA peak concentration in plasma ([4]; peaked on Day 1, both groups (SCS and IVT, 4 mg TA)): 4 ng/mL
